Assay results taken from ChEMBL document CHEMBL1833927, “Constructing transferrin receptor targeted drug delivery system by using doxorubicin hydrochloride and vanadocene dichloride” (Bioorg Med Chem Lett, 2011).

Assays:
A549 [1] = assay: Antiproliferative activity against human A549 cells by MTT assay; format: functional, cell-based
[2] = biological target: Serotransferrin (Homo sapiens) (UniProt P02787); assay: Binding affinity to human serum transferrin after 12 hrs at pH 4.8 by spectrofluorometer method
Chain of Serotransferrin (Homo sapiens) (P02787 whole entry): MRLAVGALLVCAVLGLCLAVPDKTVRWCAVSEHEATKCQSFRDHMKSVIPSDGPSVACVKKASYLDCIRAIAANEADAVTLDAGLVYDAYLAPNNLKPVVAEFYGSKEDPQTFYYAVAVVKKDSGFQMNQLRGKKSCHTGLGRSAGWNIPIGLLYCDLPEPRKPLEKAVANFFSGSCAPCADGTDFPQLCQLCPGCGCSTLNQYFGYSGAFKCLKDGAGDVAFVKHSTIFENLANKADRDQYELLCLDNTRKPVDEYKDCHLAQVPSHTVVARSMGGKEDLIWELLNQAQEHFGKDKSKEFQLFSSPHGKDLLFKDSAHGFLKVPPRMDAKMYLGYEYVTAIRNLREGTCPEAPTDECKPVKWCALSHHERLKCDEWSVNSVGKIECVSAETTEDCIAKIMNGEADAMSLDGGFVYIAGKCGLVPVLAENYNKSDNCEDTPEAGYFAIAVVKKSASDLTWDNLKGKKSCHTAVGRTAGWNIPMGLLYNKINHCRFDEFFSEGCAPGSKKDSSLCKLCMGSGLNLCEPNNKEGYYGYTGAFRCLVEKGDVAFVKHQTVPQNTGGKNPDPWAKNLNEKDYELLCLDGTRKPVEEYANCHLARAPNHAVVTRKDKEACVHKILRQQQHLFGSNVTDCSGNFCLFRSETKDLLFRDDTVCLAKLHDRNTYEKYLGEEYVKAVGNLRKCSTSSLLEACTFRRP

[3] = biological target: Serotransferrin (Homo sapiens) (UniProt P02787); assay: Binding affinity to human apo transferrin after 12 hrs at pH 4.8 by spectrofluorometer method
[4] = biological target: Serotransferrin (Homo sapiens) (UniProt P02787); assay: Binding affinity to human serum transferrin after 12 hrs at pH 7.4 by spectrofluorometer method
A549 [5] = assay: Antiproliferative activity against human A549 cells by MTT assay in presence of human serum transferrin/apo transferrin; format: functional, cell-based
[6] = biological target: Serotransferrin (Homo sapiens) (UniProt P02787); assay: Binding affinity to human apo transferrin after 12 hrs at pH 7.4 by spectrofluorometer method

COc1cccc2c1C(=O)c1c(O)c3c(c(O)c1C2=O)C[C@@](O)(C(=O)CO)C[C@@H]3O[C@H]1C[C@H](N)[C@H](O)[C@H](C)O1
Activity (A549 [1]): Dose-dependent effect | Ka [2]: 41900 M⁻¹ | Ka [3]: 271000 M⁻¹ | Ka [4]: 32600 M⁻¹ | Activity (A549 [5]): Dose-dependent effect | Ka [6]: 74500 M⁻¹
